Measured values reported in patent US5861476A, “Peptides and compounds that bind to the IL-1 receptor” (Affymax Technologies N.V., priority 1995, dated 1999).
Where a SMILES comes first, the peptide text is derived from it. Where no end group is shown, it is not given here. [ ]: non-standard residue; d: D form. Aze = O=C(O)[C@@H]1CCN1

Key:
IL-1RtI = target: T1, IL-1RtI (Homo sapiens, UniProt P14778); experiment: Inhibition of 125I-IL-1α binding to IL-1RtI (Example 3); details: inhibition of 125I-IL-1α binding to IL-1RtI; soluble peptide unless marked *
T1 construct: made in house; host or cells: recombinant host cells (one form soluble from baculovirus transformed host cells; another PIG-tailed and cleaved from the cell surface)
T1 sequence (P14778 18-336): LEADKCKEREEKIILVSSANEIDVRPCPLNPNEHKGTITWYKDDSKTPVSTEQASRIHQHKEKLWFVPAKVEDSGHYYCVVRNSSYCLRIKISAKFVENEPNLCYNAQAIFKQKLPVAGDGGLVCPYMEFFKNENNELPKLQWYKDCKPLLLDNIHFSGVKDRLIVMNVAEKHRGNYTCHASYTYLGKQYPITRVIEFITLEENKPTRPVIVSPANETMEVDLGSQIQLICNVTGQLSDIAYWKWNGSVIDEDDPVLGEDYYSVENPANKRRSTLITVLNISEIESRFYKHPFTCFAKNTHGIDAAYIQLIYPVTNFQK
Summary of the method: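 Competition with 90 pM 125I-IL-1α was run in duplicate for 2 h at 4 °C in HEPES-buffered RPMI with 1% BSA, pH 7.2-7.3, against either antibody-captured truncated receptor or cells with full-length IL-1RtI. Gamma counting of NaOH-detached material gave approximate IC50; high-affinity peptides used 24-well format.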

[1] = target: T2, IL-1 induced down-regulation of the epidermal growth factor (EGF) receptor in normal human dermal fibroblasts (NHDF) (Homo sapiens, UniProt P14778); experiment: Epidermal Growth Factor Receptor Down Regulation Assay; assay type: cell-based; details: 37° C., in the presence of IL-1α, 125I-labeled EGF binding, read-out: IC50 (approximate concentration which blocked 50% of the IL-1 induced down regulation of the EGF receptor)
T2 sequence (P14778 18-569): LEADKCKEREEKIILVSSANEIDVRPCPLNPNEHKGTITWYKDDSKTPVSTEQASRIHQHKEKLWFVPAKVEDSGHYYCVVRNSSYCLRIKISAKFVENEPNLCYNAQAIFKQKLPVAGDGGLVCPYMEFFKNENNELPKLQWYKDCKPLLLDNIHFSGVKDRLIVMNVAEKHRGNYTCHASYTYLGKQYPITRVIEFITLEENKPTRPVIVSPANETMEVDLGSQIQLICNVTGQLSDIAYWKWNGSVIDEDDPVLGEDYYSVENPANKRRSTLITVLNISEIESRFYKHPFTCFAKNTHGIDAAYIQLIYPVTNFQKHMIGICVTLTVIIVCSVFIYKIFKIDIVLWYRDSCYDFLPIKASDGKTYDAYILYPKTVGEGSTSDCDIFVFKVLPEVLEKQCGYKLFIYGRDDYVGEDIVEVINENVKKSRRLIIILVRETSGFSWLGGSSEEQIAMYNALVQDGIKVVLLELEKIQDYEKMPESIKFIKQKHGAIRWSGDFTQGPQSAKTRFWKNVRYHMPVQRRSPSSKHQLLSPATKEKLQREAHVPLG
Description: The protocol set forth in Bird and Saklatvala (1989) J. Immunol. […] This assay examines the effect of the compounds of the invention on the IL-1 induced down-regulation of the epidermal growth factor (EGF) receptor as measured by the binding of ^125 I-labeled EGF to its receptor in normal human dermal fibroblasts (NHDF). […] The table below lists the approximate concentration of representative peptides of the invention which blocked 50% of the IL-1 induced down regulation of the EGF receptor. IC50 values are indicated symbolically by the symbols "-", "+", and "++". […] Those peptides which give IC50 values of less than or equal to 100 μM are given a "+", while those which give IC50 values of 500 nM or less are indicated with a "++". Those peptides which give IC50 values at or near the cutoff point for a particular symbol are indicated with a hybrid, e.g. "±". Those peptides for which IC50 values were not determined are listed as "N.D".

[2] = target: T3, IL-1 induced E-selectin in HUVEC cells (Homo sapiens, UniProt P14778); experiment: Peptide Effects on IL-1 Induced E-Selectin (HUVEC Cells); assay type: cell-based; details: 120 pM IL-1α, read-out: IC50 (concentration required to inhibit 50% of IL-1 induced E-selectin expression)
T3 sequence (P14778 18-569): T2 sequence (P14778 18-569)
Method: The compounds of the present invention were assayed for their ability to inhibit the expression of IL-1 induced E-selectin in HUVEC cells (human umbilical vein endothelial cells). HUVEC cells are grown to confluency in the wells of a 24-well microtiter plate. The compounds were serially diluted in DMEM/F12+0.1% BSA ("SFM"with 120 pM IL-1α. The cells were washed and then incubated with IL-1α and the compound to be tested for 15 minutes. The cells were again washed and incubated in SFM for 4 hours. The cells were washed and incubated with anti-selectin antibody for 30 minutes. Following antibody incubation, the cells were incubated with ^125 I Protein A and washed. The amount of ^125 I bound to the cells was then determined. The concentration of compounds required to inhibit 50% of IL-1 induced E-selectin expression is shown below.

Row | Compound | IC50 (IL-1RtI) [nM] | IC50 [1] [nM] | IC50 [2] [nM]
1 | CC(=O)N[C@@H](Cc1ccccc1)C(=O)N[C@@H](CCC(=O)O)C(=O)N[C@@H](Cc1c[nH]c2ccccc12)C(=O)N[C@H](C(=O)N1CCC[C@H]1C(=O)NCC(=O)N[C@@H](Cc1ccc(O)cc1)C(=O)N[C@@H](Cc1c[nH]c2ccccc12)C(=O)N[C@@H](CCC(N)=O)C(=O)N1CC[C@H]1C(=O)N[C@@H](Cc1ccc(O)cc1)C(N)=O)[C@@H](C)O [AcFEWTPGYWQJY--NH2] (Ac-FEWTPGYWQ[Aze]Y-NH2) | ≤ 500 | ≤ 100000 | ≤ 500
2 | TANVSSFEWTPGYWQPYALPL | ≤ 500 | ≤ 500 | ≤ 500
